Data on one compound can be found in BindingDB's records for doi:10.1021/ml3003346 (2012).

This experiment in a line: Inhibition of EZH2-mediated proliferation of human LNCaP cells after 6 days by chemiluminescence analysis.

Consider `Cc1cc(C)c(CNC(=O)c2cc(-c3ccc(N4CCN(C)CC4)nc3)cc3c2cnn3C(C)C)c(=O)[nH]1`, for which it took 4.5 µM to reach half-maximal inhibition (IC50).
